Here are results for 24 molecules from patent US20160046592A1, “PHARMACEUTICAL COMPOSITION FOR THE TREATMENT OF DIABETES” (Ajinomoto Co., Inc., priority 2013, published 2016).

Counter-ions that a name gives are not always drawn.

This assay concerns the target T1, PPAR-α (Homo sapiens, UniProt Q07869).
T1 construct: expressed in transfected cells; host or cells: CV-1 (African green monkey kidney)
T1 sequence (Q07869 167-468): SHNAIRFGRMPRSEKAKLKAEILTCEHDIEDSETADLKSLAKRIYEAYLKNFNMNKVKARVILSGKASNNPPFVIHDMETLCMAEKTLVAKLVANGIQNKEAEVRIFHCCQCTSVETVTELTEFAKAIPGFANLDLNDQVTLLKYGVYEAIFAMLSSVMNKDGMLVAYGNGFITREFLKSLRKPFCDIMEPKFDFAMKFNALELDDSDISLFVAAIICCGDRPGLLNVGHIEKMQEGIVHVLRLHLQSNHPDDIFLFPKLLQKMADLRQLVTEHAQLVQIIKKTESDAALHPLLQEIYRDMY
As to the kind of experiment: Measurement of PPAR-α activity (GAL4 luciferase reporter assay in CV-1 cells). It is filed as cell-based. Particulars: 100(A/B): A = maximum PPAR-α activity of test compound at 3, 10, 30 and 100 μM, B = activity of the compound of WO/2011/058154 at 100 μM, 18 to 20 hours, read-out: Relative fold induction (%) of PPAR α. The method, then: The PPAR-α activity was measured according to the published article (THE JOURNAL OF BIOLOGICAL CHEMISTRY Vol. 270, No 0.22: 12953-12956, 1995).
Plasmids used for the PPAR-α activity measurement were constructed as follows. A luciferase expression plasmid (UAS×5-TK-Luc) used was obtained by introducing a sequence in which five yeast GAL4-binding sequences are linked in tandem into a portion upstream of a thymidine kinase promoter of pTAL-Luc (Takara Bio Inc., 6252-1). A PPAR-α receptor expression plasmid (hGR-GAL4-hPPARα) used was obtained by introducing a human GR N-terminal region (1-76aa), a yeast GAL4 DNA-binding region (1-147aa), and a PPARα ligand-binding region (167-468aa) between Not I and Sal I sites of pExchange-1 Core Vector (Invitrogen, 211176).
A reporter assay was conducted by the following method using African green monkey kidney-derived CV-1 cells. The CV-1 cells were seeded in a 96-well plate (Thermo Fisher Scientific K.K., 4938) at 2×10^4 cells/well by using a 10% FBS-containing DMEM (NACALAI TESQUE, INC., 0845874) medium. After culturing under conditions of 37° C. and 5% CO2 for 2 hours, the cells were transfected with the plasmids. The transfection was conducted by using Lipofectamine LTX (Invitrogen, 15338-100) according to the attached manual. The plasmid solution was prepared by adding a mixture solution of the luciferase expression plasmid and the PPAR-α receptor expression plasmid to OPTI-MEM I (Invitrogen, 11058-021). After the transfection, the test compound was added, and the cells were cultured at 37° C. in the presence of 5% CO2 for 18 to 20 hours. After the culturing, the luciferase activity was measured with Luminescensor JNR (ATTO) by using Bright-Glo (Promega, E2620).
The fold induction of PPAR-α by each test compound was calculated by the following method. A relative fold induction (%) of PPAR-α by the test compound was defined as 100 (A/B), where A represents the maximum value of the PPAR-α activities of the test compound at 3 μM, 10 μM, 30 μM, and 100 μM, and B represents the PPAR-α activity of the compound of WO/2011/058154 at 100 μM.
Turning to `CSc1cc(F)c(F)cc1-c1ccc(OCc2cccc(C(=O)N(CC(=O)O)CC3CCCNC3)c2)cc1` (stereo not drawn) [Example 50, 2-[[3-[[4-(4,5-Difluoro-2-methylsulfanyl-phenyl)phenoxy]methyl]benzoyl]-(3-piperidylmethyl)amino]acetic Acid Trifluoroacetate], the Emax stood at 4.8%.

As to `CSc1cc(F)c(F)cc1-c1ccc(OCc2cccc(C(=O)N(CCS(N)(=O)=O)CC(=O)O)c2)cc1` [Example 51, 2-[[3-[[4-(4,5-Difluoro-2-methylsulfanyl-phenyl)phenoxy]methyl]benzoyl]-(2-sulfamoylethyl)amino]acetic Acid], the Emax was 5.8%.

For `CSc1cc(F)c(F)cc1-c1ccc(OCc2cccc(C(=O)N(CC(=O)O)Cc3cocn3)c2)cc1` [Example 52, 2-[[3-[[4-(4,5-Difluoro-2-methylsulfanyl-phenyl)phenoxy]methyl]benzoyl]-(oxazol-4-ylmethyl)amino]acetic Acid], the Emax turned out to be 8.1%.

On to `CSc1cc(F)c(F)cc1-c1ccc(OCc2cccc(C(=O)N(CC(=O)O)Cc3ccncn3)c2)cc1` [Example 53, 2-[[3-[[4-(4,5-Difluoro-2-methylsulfanyl-phenyl)phenoxy]methyl]benzoyl]-(pyrimidin-4-ylmethyl)amino]acetic Acid], for which the Emax was determined as 8.2%.

For `CSc1cc(F)c(F)cc1-c1ccc(OCc2cccc(C(=O)N(CC(=O)O)Cc3ccn[nH]3)c2)cc1` [Example 54, 2-[[3-[[4-(4,5-Difluoro-2-methylsulfanyl-phenyl)phenoxy]methyl]benzoyl]-(1H-pyrazol-5-ylmethyl)amino]acetic Acid], the Emax was 8.7%.

As for `CSc1cc(F)c(F)cc1-c1ccc(OCc2cccc(C(=O)N(CC(=O)O)Cc3ccnn3C)c2)cc1` [Example 55, 2-[[3-[[4-(4,5-Difluoro-2-methylsulfanyl-phenyl)phenoxy]methyl]benzoyl]-[(2-methylpyrazol-3-yl)methyl]amino]acetic Acid], the Emax is 11%.

As to `CNS(=O)(=O)CCN(CC(=O)O)C(=O)c1cccc(COc2ccc(-c3cc(F)c(F)cc3SC)cc2)c1` [Example 56, 2-[[3-[[4-(4,5-Difluoro-2-methylsulfanyl-phenyl)phenoxy]methyl]benzoyl]-[2-(methylsulfamoyl)ethyl]amino]acetic Acid], the Emax was found to be 8%.

Take `CSc1cc(F)c(F)cc1-c1ccc(OCc2cccc(C(=O)N(CCS(=O)(=O)N(C)C)CC(=O)O)c2)cc1` [Example 59, 2-[[3-[[4-(4,5-Difluoro-2-methylsulfanyl-phenyl)phenoxy]methyl]benzoyl]-[2-(dimethylsulfamoyl)ethyl]amino]acetic Acid]: the Emax was 10%.

Turning to `CSc1cc(F)c(F)cc1-c1ccc(OCc2cccc(C(=O)N(CCc3noc(C)n3)CC(=O)O)c2)cc1` [Example 60, 2-[[3-[[4-(4,5-Difluoro-2-methylsulfanyl-phenyl)phenoxy]methyl]benzoyl]-[2-(5-methyl-1,2,4-oxadiazol-3-yl)ethyl]amino]acetic Acid], the Emax was determined as 14%.

Turning to `CSc1cc(F)c(F)cc1-c1ccc(OCc2cccc(C(=O)N3C[C@H](C(N)=O)C[C@H]3C(=O)O)c2)cc1` [Example 61, (2S,4R)-4-Carbamoyl-1-[3-[[4-(4,5-difluoro-2-methylsulfanyl-phenyl)phenoxy]methyl]benzoyl]pyrrolidine-2-carboxylic Acid], the Emax came out at 17%.

`CSc1cc(F)c(F)cc1-c1ccc(OCc2cccc(C(=O)N3[C@@H](CO)CC[C@H]3C(=O)O)c2)cc1` [Example 64, (2S,5R)-1-[3-[[4-(4,5-Difluoro-2-methylsulfanyl-phenyl)phenoxy]methyl]benzoyl]-5-(hydroxymethyl)pyrrolidine-2-carboxylic Acid]: the Emax worked out at 20%.

As to `CSc1cc(F)c(F)cc1-c1ccc(OCc2cccc(C(=O)N(CC(=O)O)Cc3ccon3)c2)cc1` [Example 66, 2-[[3-[[4-(4,5-Difluoro-2-methylsulfanyl-phenyl)phenoxy]methyl]benzoyl]-(isoxazol-3-ylmethyl)amino]acetic Acid], the Emax came out at 22%.

`CSc1cc(F)c(F)cc1-c1ccc(OCc2cccc(C(=O)N(CC(=O)O)Cc3coc(C)n3)c2)cc1` [Example 67, 2-[[3-[[4-(4,5-Difluoro-2-methylsulfanyl-phenyl)phenoxy]methyl]benzoyl]-[(2-methyloxazol-4-yl)methyl]amino]acetic Acid]: the Emax worked out at 19%.

As for `CSc1cc(F)c(F)cc1-c1ccc(OCc2cccc(C(=O)N(CC(=O)O)Cc3nc(C)no3)c2)cc1` [Example 68, 2-[[3-[[4-(4,5-Difluoro-2-methylsulfanyl-phenyl)phenoxy]methyl]benzoyl]-[(3-methyl-1,2,4-oxadiazol-5-yl)methyl]amino]acetic Acid], the Emax was 35%.

Consider `CSc1cc(F)c(F)cc1-c1ccc(OCc2cccc(C(=O)N(CC(=O)O)Cc3noc(C)n3)c2)cc1` [Example 69, 2-[[3-[[4-(4,5-Difluoro-2-methylsulfanyl-phenyl)phenoxy]methyl]benzoyl]-[(5-methyl-1,2,4-oxadiazol-3-yl)methyl]amino]acetic Acid], for which the Emax is 23%.

Regarding `CSc1cc(F)c(F)cc1-c1ccc(OCc2cccc(C(=O)N(CCn3cncn3)CC(=O)O)c2)cc1` [Example 70, 2-[[3-[[4-(4,5-Difluoro-2-methylsulfanyl-phenyl)phenoxy]methyl]benzoyl]-[2-(1,2,4-triazol-1-yl)ethyl]amino]acetic Acid], the Emax amounted to 14%.

Take `CSc1cc(F)c(F)cc1-c1ccc(OCc2cccc(C(=O)N(CC(=O)O)Cc3cscn3)c2)cc1` [Example 71, 2-[[3-[[4-(4,5-Difluoro-2-methylsulfanyl-phenyl)phenoxy]methyl]benzoyl]-(thiazol-4-ylmethyl)amino]acetic Acid]: the Emax turned out to be 20%.

As to `CSc1cc(F)c(F)cc1-c1ccc(OCc2cccc(C(=O)N3C(CC#N)CC[C@H]3C(=O)O)c2)cc1` (stereo partly drawn) [Example 72, (2S)-5-(Cyanomethyl)-1-[3-[[4-(4,5-difluoro-2-methylsulfanyl-phenyl)phenoxy]methyl]benzoyl]pyrrolidine-2-carboxylic Acid], the Emax was found to be 12%.

`CSc1cc(F)c(F)cc1-c1ccc(OCc2cccc(C(=O)N(CC(=O)O)Cc3nnc(C)o3)c2)cc1` [Example 73, 2-[[3-[[4-(4,5-Difluoro-2-methylsulfanyl-phenyl)phenoxy]methyl]benzoyl]-[(5-methyl-1,3,4-oxadiazol-2-yl)methyl]amino]acetic Acid]: the Emax stood at 16%.

As to `CSc1cc(F)c(F)cc1-c1ccc(OCc2cccc(C(=O)N(CC(=O)O)Cc3cn(C)cn3)c2)cc1` [Example 74, 2-[[3-[[4-(4,5-Difluoro-2-methylsulfanyl-phenyl)phenoxy]methyl]benzoyl]-[(1-methylimidazol-4-yl)methyl]amino]acetic Acid], the Emax was found to be 16%.

Regarding `N#CCCN(CC(=O)O)C(=O)c1cccc(COc2ccc(-c3cc(F)c(F)c4ccoc34)cc2)c1` [Example 75, 2-[2-Cyanoethyl-[3-[[4-(4,5-difluorobenzofuran-7-yl)phenoxy]methyl]benzoyl]amino]acetic Acid], the Emax is 38%.

`CS(=O)(=O)CCCN(CC(=O)O)C(=O)c1cccc(COc2ccc(-c3cc(F)c(F)c4ccoc34)cc2)c1` [Example 77, 2-[[3-[[4-(4,5-Difluorobenzofuran-7-yl)phenoxy]methyl]benzoyl]-(3-methylsulfonylpropyl)amino]acetic Acid]: the Emax is 40%.

Take `CO[C@H]1CCN(C(=O)c2cccc(COc3ccc(-c4cc(F)c(F)c5ccoc45)cc3)c2)[C@@H]1C(=O)O` [Example 78, (2S,3S)-1-[3-[[4-(4,5-Difluorobenzofuran-7-yl)phenoxy]methyl]benzoyl]-3-methoxy-pyrrolidine-2-carboxylic Acid]: the Emax is 65%.

Regarding `NC(=O)CCN(CC(=O)O)C(=O)c1cccc(COc2ccc(-c3cc(F)c(F)c4ccoc34)cc2)c1` [Example 79, 2-[(3-Amino-3-oxo-propyl)-[3-[[4-(4,5-difluorobenzofuran-7-yl)phenoxy]methyl]benzoyl]amino]acetic Acid], the Emax amounted to 7.1%.
